# Measured values as given in ChEMBL document CHEMBL3396992, “Synthesis and biological evaluation of pyrazolylthiazole carboxylic acids as potent anti-inflammatory-antimicrobial agents” (2015).
# Calls of active or inactive are those of the source. The calls are words filed in the database; no cut-off is given here.
# Legend:
# Bacillus subtilis [1] = experiment: Antimicrobial activity against Bacillus subtilis MTCC 121 assessed as growth inhibition after 24 hrs by agar well diffusion method; type: functional; details: MTCC 121, 24 h
# Pseudomonas aeruginosa [2] = experiment: microbe, parasite or virus in culture; details: MTCC 741, 24 h, read-out: DIZ
# Description: (§1) Antimicrobial activity against Pseudomonas aeruginosa MTCC 741 assessed as growth inhibition at 4 mg/ml after 24 hrs by agar well diffusion method
# Staphylococcus aureus [3] = experiment: Antimicrobial activity against Staphylococcus aureus MTCC 96 assessed as growth inhibition at 4 mg/ml after 24 hrs by agar well diffusion method; type: functional; details: MTCC 96, 24 h, read-out: DIZ
# Bacillus subtilis [4] = experiment: Antimicrobial activity against Bacillus subtilis MTCC 121 assessed as growth inhibition at 4 mg/ml after 24 hrs by agar well diffusion method; type: functional; details: MTCC 121, 24 h, read-out: DIZ
# Escherichia coli = experiment: Antimicrobial activity against Escherichia coli MTCC 1652 assessed as growth inhibition at 4 mg/ml after 24 hrs by agar well diffusion method; type: functional, organism-based
# Rattus norvegicus [5] = experiment: Antiinflammatory activity against carrageenan-induced paw edema male Wistar albino rat assessed as edema volume at 50 mg/kg, ip administered 30 mins prior to carrageenan-challenge measured after 3 hrs (reference value: 1.73 +/- 0.09 mL); type: functional; details: route intraperitoneal
# Saccharomyces cerevisiae [6] = experiment: Antimicrobial activity against Saccharomyces cerevisiae MTCC 170 assessed as growth inhibition at 4 mg/ml after 24 hrs by agar well diffusion method; type: functional; details: MTCC 170, 24 h, read-out: DIZ
# Rattus norvegicus [7] = experiment: Antiinflammatory activity against carrageenan-induced paw edema male Wistar albino rat at 50 mg/kg, ip administered 30 mins prior to carrageenan-challenge measured after 3 hrs relative to control; type: functional; details: route intraperitoneal
# Rattus norvegicus [8] = experiment: Antiinflammatory activity against carrageenan-induced paw edema male Wistar albino rat at 50 mg/kg, ip administered 30 mins prior to carrageenan-challenge measured after 2 hrs relative to control; type: functional; details: route intraperitoneal
# Pseudomonas aeruginosa [9] = details: MTCC 741, 4 mg/ml
# Description: as §1
# Rattus norvegicus [10] = experiment: Antiinflammatory activity against carrageenan-induced paw edema male Wistar albino rat at 50 mg/kg, ip administered 30 mins prior to carrageenan-challenge measured after 1 hr relative to control; type: functional; details: route intraperitoneal
# Staphylococcus aureus [11] = experiment: Antimicrobial activity against Staphylococcus aureus MTCC 96 assessed as growth inhibition after 24 hrs by agar well diffusion method; type: functional; details: MTCC 96, 24 h
# Saccharomyces cerevisiae [12] = experiment: Antimicrobial activity against Saccharomyces cerevisiae MTCC 170 assessed as growth inhibition after 24 hrs by agar well diffusion method; type: functional; details: MTCC 170, 24 h
# Rattus norvegicus [13] = experiment: Antiinflammatory activity against carrageenan-induced paw edema male Wistar albino rat assessed as edema volume at 50 mg/kg, po administered 30 mins prior to carrageenan-challenge measured after 1 hr (reference value: 1.11 +/- 0.12 mL); type: functional
# Rattus norvegicus [14] = experiment: Antiinflammatory activity against carrageenan-induced paw edema male Wistar albino rat assessed as edema volume at 50 mg/kg, ip administered 30 mins prior to carrageenan-challenge measured after 2 hrs (reference value: 1.21 +/- 0.16 mL); type: functional; details: route intraperitoneal
# Candida albicans [15] = experiment: Antimicrobial activity against Candida albicans MTCC 3017 assessed as growth inhibition at 4 mg/ml after 24 hrs by agar well diffusion method; type: functional; details: MTCC 3017, 24 h, read-out: DIZ
# Rattus norvegicus [16] = experiment: Antiinflammatory activity against carrageenan-induced paw edema male Wistar albino rat at 50 mg/kg, ip administered 30 mins prior to carrageenan-challenge measured after 4 hrs relative to control; type: functional; details: route intraperitoneal
# Candida albicans [17] = experiment: Antimicrobial activity against Candida albicans MTCC 3017 assessed as growth inhibition after 24 hrs by agar well diffusion method; type: functional; details: MTCC 3017, 24 h
# Rattus norvegicus [18] = experiment: Antiinflammatory activity against carrageenan-induced paw edema male Wistar albino rat assessed as edema volume at 50 mg/kg, ip administered 30 mins prior to carrageenan-challenge measured after 4 hrs (reference value: 1.88 +/- 0.20 mL); type: functional; details: route intraperitoneal
# Rattus norvegicus [19] = experiment: Antiinflammatory activity against carrageenan-induced paw edema male Wistar albino rat assessed as edema volume at 10 mg/kg, ip administered 30 mins prior to carrageenan-challenge measured after 3 hrs (reference value: 1.73 +/- 0.09 mL); type: functional; details: route intraperitoneal
# Rattus norvegicus [20] = experiment: Antiinflammatory activity against carrageenan-induced paw edema male Wistar albino rat assessed as edema volume at 10 mg/kg, ip administered 30 mins prior to carrageenan-challenge measured after 1 hr (reference value: 1.11 +/- 0.12 mL); type: functional; details: route intraperitoneal
# Rattus norvegicus [21] = experiment: Antiinflammatory activity against carrageenan-induced paw edema male Wistar albino rat at 10 mg/kg, ip administered 30 mins prior to carrageenan-challenge measured after 1 hr relative to control; type: functional; details: route intraperitoneal
# Rattus norvegicus [22] = experiment: Antiinflammatory activity against carrageenan-induced paw edema male Wistar albino rat assessed as edema volume at 10 mg/kg, ip administered 30 mins prior to carrageenan-challenge measured after 2 hrs (reference value: 1.21 +/- 0.16 mL); type: functional; details: route intraperitoneal
# Rattus norvegicus [23] = experiment: Antiinflammatory activity against carrageenan-induced paw edema male Wistar albino rat at 10 mg/kg, ip administered 30 mins prior to carrageenan-challenge measured after 2 hrs relative to control; type: functional; details: route intraperitoneal
# Rattus norvegicus [24] = experiment: Antiinflammatory activity against carrageenan-induced paw edema male Wistar albino rat assessed as edema volume at 10 mg/kg, ip administered 30 mins prior to carrageenan-challenge measured after 4 hrs (reference value: 1.88 +/- 0.20 mL); type: functional; details: route intraperitoneal
# Rattus norvegicus [25] = experiment: Antiinflammatory activity against carrageenan-induced paw edema male Wistar albino rat at 10 mg/kg, ip administered 30 mins prior to carrageenan-challenge measured after 3 hrs relative to control; type: functional; details: route intraperitoneal
# Rattus norvegicus [26] = experiment: Antiinflammatory activity against carrageenan-induced paw edema male Wistar albino rat at 10 mg/kg, ip administered 30 mins prior to carrageenan-challenge measured after 4 hrs relative to control; type: functional; details: route intraperitoneal
SMILES,MIC (Bacillus subtilis [1]) [µg/mL],zone of inhibition at 4000 µg/mL (Staphylococcus aureus [3]) [mm],zone of inhibition at 4000 µg/mL (Bacillus subtilis [4]) [mm],diameter of the inhibition zone (DIZ) (Escherichia coli),Activity (Rattus norvegicus [5]) [mL],zone of inhibition at 4000 µg/mL (Saccharomyces cerevisiae [6]) [mm],Activity (Rattus norvegicus [7]) [%],Activity (Rattus norvegicus [8]) [%],DIZ (Pseudomonas aeruginosa [9]),Activity (Rattus norvegicus [10]) [%],MIC (Staphylococcus aureus [11]) [µg/mL],MIC (Saccharomyces cerevisiae [12]) [µg/mL],Activity (Rattus norvegicus [13]) [mL],Activity (Rattus norvegicus [14]) [mL],zone of inhibition at 4000 µg/mL (Candida albicans [15]) [mm],Activity (Rattus norvegicus [16]) [%],MIC (Candida albicans [17]) [µg/mL],Activity (Rattus norvegicus [18]) [mL],also measured
O=C(O)c1cn(C2CC2)c2cc(N3CCNCC3)c(F)cc2c1=O [CIPROFLOXACIN],6.25,24,24,,,,,,,,,,,,,,,,zone of inhibition at 4000 µg/mL (Pseudomonas aeruginosa [2]): 22 mm
O=C(O)c1sc(-c2cn(-c3ccccc3)nc2-c2ccccc2)nc1-c1ccc(F)cc1,25,24.6,18.3,inactive,0.18,20.6,89.59,86.77,inactive,82.88,12.5,25,0.19,0.16,25.6,90.95,12.5,0.17,
COc1ccc(-c2nc(-c3cn(-c4ccccc4)nc3-c3ccccc3)sc2C(=O)O)cc1,50,20.3,17.6,inactive,0.24,21.3,86.12,79.33,inactive,82.88,25,25,0.19,0.25,15.3,88.29,50,0.22,
COc1ccc2c(c1)c(CC(=O)O)c(C)n2C(=O)c1ccc(Cl)cc1 [INDOMETHACIN],,,,,,,,,,,,,,,,,,,Activity (Rattus norvegicus [19]): 0.15 mL; Activity (Rattus norvegicus [20]): 0.07 mL; Activity (Rattus norvegicus [21]): 93.69%; Activity (Rattus norvegicus [22]): 0.14 mL; Activity (Rattus norvegicus [23]): 88.42%; Activity (Rattus norvegicus [24]): 0.16 mL; Activity (Rattus norvegicus [25]): 91.32%; Activity (Rattus norvegicus [26]): 91.48%
O=C(O)c1sc(-c2cn(-c3ccccc3)nc2-c2ccc(F)cc2)nc1-c1ccc(F)cc1,50,15.3,17.6,inactive,0.61,17.6,64.73,52.89,inactive,79.27,50,25,0.23,0.57,19.6,75,25,0.47,
